{"source": "patent US6680025B2", "about": "“Device and method for photoactivation” (Cerus Corporation, priority 1989, dated 2004)", "type_in_all_cases": "biochemical", "key": {"HIV 115-mer [1]": {"tested_on": "HIV 115-mer", "assay": "Effect of unirradiated isopsoralen on PCR", "conditions": "for Counts (CPM) of PCR product: 30 cycles, 0 μg/ml gave 42200", "experimental": "To systematically evaluate the effect of the presence of increasing concentrations of isopsoralen on PCR, AMDMIP (0, 100, 200, 400 μg/ml) was added to 107 copies of HIV 115-mer as template. PCR was then carried out for 30 cycles in the presence of α-^32P-dCTP. The PCR product was run on denaturing polyacrylamide gel and autoradiographed. The bands were thereafter cut and counted."}, "HIV 115-mer [2]": {"tested_on": "HIV 115-mer", "assay": "Post-amplification sterilization, isopsoralen present during amplification (Example 55)", "conditions": "AMDMIP 400 μg/ml, 30 cycles", "text": "For the purposes of this determination, the steps of the following experiment include (see FIG. 42): a) preparing template, b) providing template, c) providing isopsoralen, d) providing PCR reagents, e) providing polymerase, f) mixing isopsoralen, PCR reagents, template, and polymerase to initiate PCR, g) cycling to provide PCR product, h) irradiating, i) carrying over of PCR product into new tubes at specific copy numbers, and j) amplifying in a subsequent PCR.\nStep a): Template Preparation. HIV 115-mer was used as template.\nStep b) Providing Template. For the reaction, template (equivalent to approximately 107 copies) in buffer was provided for the reaction vessel. Step c) Providing Isopsoralen. AMDMIP (400 μg/ml) was provided as the isopsoralen. This is a higher concentration of AMDMIP than used in the previous example.\nStep d), e), f) and g). PCR reagents and polymerase were provided, mixed and cycled as described above. This time, however, isopsoralen is part of the pre-amplification mixture.\nStep h) Irradiation. Irradiation was performed on the CE-III device for 15 minutes at 25° C.\nStep i) Carrying over of PCR product. Aliquots of PCR product were added into six new reaction tubes—two tubes for each dilution. Dilutions to yield 10^7, 10^5 and 10^3 copies were made. […]"}, "HIV 115-mer [3]": {"tested_on": "HIV 115-mer", "assay": "Crosslinkable Oligonucleotide Probe Analysis (COP) after sterilization", "experimental": "Preparation of Samples: The HIV 115-mer system with primers SK-38/SK-39 was used for the experiment (see FIG. 36, “HIV Oligonucleotide System”). Two types of starting template were used: previously amplified 115-mer or genomic DNA, isolated from an individual known to be infected with HIV (MACS sample). For previously amplified 115-mer between 10^5 and 10^6 copies were used for starting template. For the genomic (MACS) sample, approximately 1 μg (3×10^5 copies) of genomic DNA were used. Two PCR samples were prepared for each type of template then amplification was carried out for either 20 or 30 cycles. One of the two PCR samples contained AMDMIP at 200 μg/ml while the other was AMDMIP free. Following amplification, the AMDMIP containing samples were divided and half were irradiated. Analysis (OH or COP) was then done on the three samples from each set (AMDMIP free, AMDMIP unirradiated, and AMDMIP irradiated) for each cycle number. The AMDMIP free samples served as control, the AMDMIP unirradiated sampes adressed the effect of non-covalently bound AMDMIP on detection, and AMDMIP irradiated samples addressed the effect of covalently bound AMDMIP on detection.\nCOP and OH assays were performed a follows. 10 μl of the PCR reaction mixture was added to 3.3 μl of “probe mix” [5′-labelled SK-19 (normal or monoadducted) at 10^−8 M containing EDTA and an appropriate salt mixtures], overlaid with 30-40 μl of light mineral oil, then heated to 95-100° C. for 5 minutes. For COP, the hybridization mixture as placed in the PTI device at 56° C. and irradiated for 15 minutes. Following this, loading dyes (containing urea or formamide) were added, the sample heated to 95-100° C. for 5 minutes, quick chilled on wet ice, then loaded on a denaturing PAGE gel followed by electrophoresis under denaturing conditions. For OH reactions, the hybridization mixture was incubated at 56° C. for 30 minutes, loading dyes added, and aliquots loaded directly into a native PAGE gel followed by electrophoresis under native conditions. 1. Samples 1-6 contain previously amplified 115-mer that was re-amplified either 20 (samples 1,3,5) or 30 (Samples 2,4,6) cycles then detected by COP. Samples 1 & 2 are controls (without AMDMIP); samples 3 and 4 are (with AMDMIP and with light) sterilized samples; samples 5 & 6 are (with AMDMIP but without light) controls. The bands corresponding to amplified 115-mer crosslinked to labelled 41-mer probe (SK-19 MA) are the upper bands in FIG. 46. Samples 11-16 are the same series except the MACS sample was used as template."}, "human placental DNA": {"tested_on": "human placental DNA", "assay": "PCR in presence of AMDMIP and DMSO co-solvent", "conditions": "AMDMIP 200 μg/ml", "experimental": "In this example, the effect of DMSO on PCR amplification in the presence of high concentrations of sterilizing compound (AMDMIP) was investigated. Samples were prepared for PCR which contained 1 μg of human placental DNA either with or without (unirradiated) AMDMIP (200 μg/ml). The samples were amplified 30 cycles under standard PCR conditions in the presence of 0%, 1%, 5% or 10% DMSO. The reaction mix contained α-^32P-dCTP. Following amplification, the samples were analyzed by PAGE (data not shown)."}}, "data": [{"smiles": "Cc1oc2ccc3c(C)cc(=O)oc3c2c1CN", "note": "[AMDMIP, 4′-Aminomethyl-4,5′-dimethylisopsoralen]", "values": [{"measurement": "concentration compatible with the PCR system", "setting": "HIV 115-mer [1]; HIV 115-mer system", "result": "up to 400 μg/ml"}, {"measurement": "Counts (CPM) of PCR product", "setting": "HIV 115-mer [1]; unirradiated AMDMIP 100 μg/ml", "result": 77200, "unit": "CPM"}, {"measurement": "Counts (CPM) of PCR product", "setting": "HIV 115-mer [1]; unirradiated AMDMIP 200 μg/ml", "result": 77500, "unit": "CPM"}, {"measurement": "Counts (CPM) of PCR product", "setting": "HIV 115-mer [1]; unirradiated AMDMIP 400 μg/ml", "result": 69400, "unit": "CPM"}, {"measurement": "post-amplification sterilization", "setting": "HIV 115-mer [2]; CE-III 15 minutes at 25° C., 10^7, 10^5, 10^3 copies carried over", "result": "complete, post-amplification sterilization"}, {"measurement": "reamplification of carryover with AMDMIP, not light-treated", "setting": "HIV 115-mer [2]", "result": "show amplification"}, {"measurement": "COP hybrid band CPM", "setting": "HIV 115-mer [3]; sample 3: previously amplified 115-mer, 20 cycles, AMDMIP 200 μg/ml with light", "result": 1944, "unit": "CPM"}, {"measurement": "COP hybrid band CPM as % of AMDMIP-free control", "setting": "HIV 115-mer [3]; sample 3: previously amplified 115-mer, 20 cycles, AMDMIP with light", "result": 62, "unit": "%"}, {"measurement": "COP hybrid band CPM", "setting": "HIV 115-mer [3]; sample 4: previously amplified 115-mer, 30 cycles, AMDMIP 200 μg/ml with light", "result": 36452, "unit": "CPM"}, {"measurement": "COP hybrid band CPM as % of AMDMIP-free control", "setting": "HIV 115-mer [3]; sample 4: previously amplified 115-mer, 30 cycles, AMDMIP with light", "result": 83, "unit": "%"}, {"measurement": "COP hybrid band CPM", "setting": "HIV 115-mer [3]; sample 5: previously amplified 115-mer, 20 cycles, AMDMIP 200 μg/ml without light", "result": 4480, "unit": "CPM"}, {"measurement": "COP hybrid band CPM as % of AMDMIP-free control", "setting": "HIV 115-mer [3]; sample 5: previously amplified 115-mer, 20 cycles, AMDMIP without light", "result": 144, "unit": "%"}, {"measurement": "COP hybrid band CPM", "setting": "HIV 115-mer [3]; sample 6: previously amplified 115-mer, 30 cycles, AMDMIP 200 μg/ml without light", "result": 39596, "unit": "CPM"}, {"measurement": "COP hybrid band CPM as % of AMDMIP-free control", "setting": "HIV 115-mer [3]; sample 6: previously amplified 115-mer, 30 cycles, AMDMIP without light", "result": 90, "unit": "%"}, {"measurement": "COP hybrid band CPM", "setting": "HIV 115-mer [3]; sample 13: MACS genomic DNA, 20 cycles, AMDMIP 200 μg/ml with light", "result": 460, "unit": "CPM"}, {"measurement": "COP hybrid band CPM as % of AMDMIP-free control", "setting": "HIV 115-mer [3]; sample 13: MACS genomic DNA, 20 cycles, AMDMIP with light", "result": 52, "unit": "%"}, {"measurement": "COP hybrid band CPM", "setting": "HIV 115-mer [3]; sample 14: MACS genomic DNA, 30 cycles, AMDMIP 200 μg/ml with light", "result": 41777, "unit": "CPM"}, {"measurement": "COP hybrid band CPM as % of AMDMIP-free control", "setting": "HIV 115-mer [3]; sample 14: MACS genomic DNA, 30 cycles, AMDMIP with light", "result": 78, "unit": "%"}, {"measurement": "COP hybrid band CPM", "setting": "HIV 115-mer [3]; sample 15: MACS genomic DNA, 20 cycles, AMDMIP 200 μg/ml without light", "result": 464, "unit": "CPM"}, {"measurement": "COP hybrid band CPM as % of AMDMIP-free control", "setting": "HIV 115-mer [3]; sample 15: MACS genomic DNA, 20 cycles, AMDMIP without light", "result": 53, "unit": "%"}, {"measurement": "COP hybrid band CPM", "setting": "HIV 115-mer [3]; sample 16: MACS genomic DNA, 30 cycles, AMDMIP 200 μg/ml without light", "result": 35176, "unit": "CPM"}, {"measurement": "COP hybrid band CPM as % of AMDMIP-free control", "setting": "HIV 115-mer [3]; sample 16: MACS genomic DNA, 30 cycles, AMDMIP without light", "result": 66, "unit": "%"}, {"measurement": "product band CPM", "setting": "human placental DNA; 0% DMSO", "result": 2500, "unit": "CPM"}, {"measurement": "product band CPM", "setting": "human placental DNA; 1% DMSO", "result": 2800, "unit": "CPM"}, {"measurement": "product band CPM", "setting": "human placental DNA; 5% DMSO", "result": "86,000 CPM"}, {"measurement": "product band CPM", "setting": "human placental DNA; 10% DMSO", "result": "102,000 CPM"}, {"measurement": "amplification in presence of unirradiated AMDMIP", "setting": "human placental DNA; no DMSO, 30 cycles", "result": "virtually no detectable amplification product"}]}]}
